From patent publication US6514912B1, “Use of benzo[C]quinolizine derivatives as plant growth regulators” (Applied Research Systems ARS Holding N.V., priority 1998, dated 2003)

System: Arabidopsis Thaliana Columbia (Col 0) seeds
Assay: Germination of Arabidopsis seeds in the dark, hypocotyledon length
Format: in vivo
Conditions: 10 days in the dark
Protocol: Batches of 25 seeds of Arabidopsis Thaliana Columbia (Col 0) were made to germinate in a suitable culture medium consisting of 0.5 ×MS at pH 5.7, containing 1% sucrose, 1×Vitamin B5 Gamborg, and 0.8% phyto-agar in the presence of the 1,2,5,6-tetrahydro-(11H)benzo[c]quinolizin-3-one inhibitor at the concentrations of 0, 0.01, 0.1, 1 and 10 micromolar. After two hours of treatment in light, the seeds were covered with three layers of aluminium foil and kept at 21° C. in a growth chamber. After 10 days in the dark, the length of the hypocotyledons was measured. […] A reduction of 50% in the hypocotyledons as compared to the controls was found for the seeds treated with a concentration of 0.1 micromolar of inhibitor.

O=C1C=C2CCc3ccccc3N2CC1 [1,2,5,6-tetrahydro-(11H)benzo[c]quinolizin-3-one]
length of the hypocotyledons versus inhibitor concentration (0.01, 0.1, 1 and 10 micromolar, untreated approximately 15-16 mm): progressively shorter as the concentration of inhibitor used was increased
reduction in the hypocotyledons as compared to the controls (0.1 micromolar inhibitor in culture medium, 21° C., batches of 25 seeds): 50%
